Data published in ChEMBL document CHEMBL4422673, “Discovery, synthesis and characterization of a series of (1-alkyl-3-methyl-1H-pyrazol-5-yl)-2-(5-aryl-2H-tetrazol-2-yl)acetamides as novel GIRK1/2 potassium channel activators” (Bioorg Med Chem Lett, 2019).

Legend:
Assay type in all cases: cell-based
Kir3.1/Kir3.2 = target: T1, Kir3.1/Kir3.2 (Homo sapiens, UniProt P48051+P48549); assay: Activation of human GIRK1/2 expressed in HEK293 cells co-expressing rat mGlu8 by thallium flux assay
T1 sequence (P48549 whole entry): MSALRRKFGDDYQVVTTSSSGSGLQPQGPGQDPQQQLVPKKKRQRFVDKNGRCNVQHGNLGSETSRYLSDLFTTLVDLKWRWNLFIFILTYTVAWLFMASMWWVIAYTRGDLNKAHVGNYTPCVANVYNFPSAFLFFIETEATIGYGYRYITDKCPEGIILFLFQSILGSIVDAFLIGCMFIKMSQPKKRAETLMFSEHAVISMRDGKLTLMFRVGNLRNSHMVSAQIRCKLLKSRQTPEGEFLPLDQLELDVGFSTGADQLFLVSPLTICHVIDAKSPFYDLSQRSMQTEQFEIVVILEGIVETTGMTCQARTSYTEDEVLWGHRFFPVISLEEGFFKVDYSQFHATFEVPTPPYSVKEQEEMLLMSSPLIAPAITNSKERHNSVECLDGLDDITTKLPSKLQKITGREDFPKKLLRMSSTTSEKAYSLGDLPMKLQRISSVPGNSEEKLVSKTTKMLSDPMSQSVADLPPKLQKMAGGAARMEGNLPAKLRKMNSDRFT
T1 sequence (P48051 whole entry): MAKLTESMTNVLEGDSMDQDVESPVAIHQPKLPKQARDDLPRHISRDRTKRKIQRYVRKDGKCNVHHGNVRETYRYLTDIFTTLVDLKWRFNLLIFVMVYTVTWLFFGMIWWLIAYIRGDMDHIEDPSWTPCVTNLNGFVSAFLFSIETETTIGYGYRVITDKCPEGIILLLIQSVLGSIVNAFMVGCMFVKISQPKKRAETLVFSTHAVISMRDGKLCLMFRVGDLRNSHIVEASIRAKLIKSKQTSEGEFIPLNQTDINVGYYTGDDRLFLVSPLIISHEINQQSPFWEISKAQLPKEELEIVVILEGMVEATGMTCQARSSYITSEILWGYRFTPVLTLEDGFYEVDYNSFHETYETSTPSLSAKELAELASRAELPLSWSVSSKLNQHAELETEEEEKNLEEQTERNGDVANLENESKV

[1] = target: Kir3.1/Kir3.2 (Homo sapiens) (UniProt P48549+P48051); assay: Activation of human GIRK1/2 expressed in HEK293 cells co-expressing rat mGlu8 by thallium flux assay relative to control
Kir3.1/Kir3.4 = target: T2, Kir3.1/Kir3.4 (Homo sapiens, UniProt P48544+P48549); assay: Activation of human GIRK1/4 expressed in HEK293 cells co-expressing rat mGlu8 by thallium flux assay
T2 sequence (P48549 whole entry): T1 sequence (P48549 whole entry)
T2 sequence (P48544 whole entry): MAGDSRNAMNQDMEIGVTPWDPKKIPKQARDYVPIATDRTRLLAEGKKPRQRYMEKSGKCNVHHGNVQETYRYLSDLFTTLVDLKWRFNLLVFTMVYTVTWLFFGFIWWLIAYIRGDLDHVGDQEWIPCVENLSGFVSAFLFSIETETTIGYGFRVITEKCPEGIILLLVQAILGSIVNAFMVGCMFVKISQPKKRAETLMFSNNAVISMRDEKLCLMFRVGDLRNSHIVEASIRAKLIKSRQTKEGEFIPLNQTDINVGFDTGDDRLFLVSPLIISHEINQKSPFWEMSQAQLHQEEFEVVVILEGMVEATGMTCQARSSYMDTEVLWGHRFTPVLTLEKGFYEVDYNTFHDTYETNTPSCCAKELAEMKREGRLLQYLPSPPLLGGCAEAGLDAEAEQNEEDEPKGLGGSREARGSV

[2] = target: Kir3.1/Kir3.4 (Homo sapiens) (UniProt P48549+P48544); assay: Activation of human GIRK1/4 expressed in HEK293 cells co-expressing rat mGlu8 by thallium flux assay relative to control

## Cc1cc(NC(=O)Cc2ccc(-c3ccc(Cl)c(Cl)c3)cc2)n(C2CCCCC2)n1
Kir3.1/Kir3.2
  EC50: 4.47 µM
[1]
  Emax: 49%
Kir3.1/Kir3.4
  EC50: 4.35 µM
[2]
  Emax: 11%

## Cc1cc(NC(=O)Cn2nnc(-c3cccc(C(F)(F)F)c3)n2)n(C2CCCCC2)n1
Kir3.1/Kir3.2
  EC50: 0.183 µM
[1]
  Emax: 86%
Kir3.1/Kir3.4
  EC50: 0.85 µM
[2]
  Emax: 57%

## Cc1cc(NC(=O)Cn2nnc(-c3ccc(F)cc3)n2)n(C2CCCCC2)n1
Kir3.1/Kir3.2
  EC50: 0.18 µM
[1]
  Emax: 92%
Kir3.1/Kir3.4
  EC50: 0.634 µM
[2]
  Emax: 74%

## O=C(Cn1nnc(-c2ccccc2)n1)NC1CC2CCC1C2 (stereo unspecified)
Kir3.1/Kir3.2
  EC50: 1.98 µM
[1]
  Emax: 13%
Kir3.1/Kir3.4
  EC50: 2.76 µM
[2]
  Emax: 7%

## Cc1cc(NC(=O)Cn2nnc(-c3ccccn3)n2)n(C2CCCCC2)n1
Kir3.1/Kir3.2
  EC50: 14.6 µM
[1]
  Emax: 81%
Kir3.1/Kir3.4
  EC50: > 33 µM
[2]
  Emax: > 41%

## Cc1cc(NC(=O)Cn2nnc(-c3cccnc3)n2)n(C2CCCCC2)n1
Kir3.1/Kir3.2
  EC50: 1.93 µM
[1]
  Emax: 96%
Kir3.1/Kir3.4
  EC50: 4.91 µM
[2]
  Emax: 80%

## Cc1cc(NC(=O)Cn2nnc(-c3ccnc(F)c3)n2)n(C2CCCCC2)n1
Kir3.1/Kir3.2
  EC50: 0.441 µM
[1]
  Emax: 95%
Kir3.1/Kir3.4
  EC50: 1.34 µM
[2]
  Emax: 68%

## CCC(C)n1nc(C)cc1NC(=O)Cn1nnc(-c2ccccc2)n1 (stereo unspecified)
Kir3.1/Kir3.2
  EC50: > 5 µM
[1]
  Emax: > 69%
Kir3.1/Kir3.4
  EC50: > 10 µM
[2]
  Emax: > 20%

## Cc1cc(NC(=O)Cn2nnc(-c3cccc(C#N)c3)n2)n(C2CCCCC2)n1
Kir3.1/Kir3.2
  EC50: 0.183 µM
[1]
  Emax: 80%
Kir3.1/Kir3.4
  EC50: 0.619 µM
[2]
  Emax: 55%

## CC1CC1c1cc(NC(=O)Cn2nnc(-c3ccccc3)n2)n(C2CCCCC2)n1 (stereo unspecified)
Kir3.1/Kir3.2
  EC50: 0.843 µM
[1]
  Emax: 78%
Kir3.1/Kir3.4
  EC50: > 10 µM
[2]
  Emax: > 19%

## Cc1cc(NC(=O)Cc2nnc(-c3ccccc3)s2)n(C2CCCCC2)n1
Kir3.1/Kir3.2
  EC50: > 3 µM
[1]
  Emax: > 60%
Kir3.1/Kir3.4
  EC50: > 10 µM
[2]
  Emax: > 21%

## COc1ccc(-c2nnn(CC(=O)Nc3cc(C)nn3C3CCCCC3)n2)cc1
Kir3.1/Kir3.2
  EC50: 0.175 µM
[1]
  Emax: 90%
Kir3.1/Kir3.4
  EC50: 0.779 µM
[2]
  Emax: 65%

## Cc1cc(NC(=O)Cc2ccc(-c3ccccc3)cc2)n(C2CCCCC2)n1
Kir3.1/Kir3.2
  EC50: 1.66 µM
[1]
  Emax: 69%
Kir3.1/Kir3.4
  EC50: 1.82 µM
[2]
  Emax: 20%

## O=C(Cn1nnc(-c2ccccc2)n1)Nc1cc(C2CC2)nn1C1CCCCC1
Kir3.1/Kir3.2
  EC50: 0.271 µM
[1]
  Emax: 45%
Kir3.1/Kir3.4
  EC50: 0.659 µM
[2]
  Emax: 15%

## Cc1cc(NC(=O)Cc2coc(-c3ccccc3)n2)n(C2CCCCC2)n1
Kir3.1/Kir3.2
  EC50: > 11 µM
[1]
  Emax: > 69%
Kir3.1/Kir3.4
  EC50: 3.98 µM
[2]
  Emax: 22%

## Cc1cc(NC(=O)Cn2cc(-c3ccccc3)cn2)n(C2CCCCC2)n1
Kir3.1/Kir3.2
  EC50: 0.065 µM
[1]
  Emax: 72%
Kir3.1/Kir3.4
  EC50: 0.348 µM
[2]
  Emax: 52%

## Cc1cc(NC(=O)Cn2nnc(-c3ccccc3)n2)n(-c2ccccc2)n1
Kir3.1/Kir3.2
  EC50: 3.02 µM
[1]
  Emax: 66%
Kir3.1/Kir3.4
  EC50: 4.09 µM
[2]
  Emax: 25%

## Cc1cc(NC(=O)Cn2ccc(-c3ccccc3)n2)n(C2CCCCC2)n1
Kir3.1/Kir3.2
  EC50: 0.511 µM
[1]
  Emax: 88%
Kir3.1/Kir3.4
  EC50: 0.998 µM
[2]
  Emax: 49%

## Cc1cc(NC(=O)Cn2nnc(-c3ccc(C(F)(F)F)cc3)n2)n(C2CCCCC2)n1
Kir3.1/Kir3.2
  EC50: 0.241 µM
[1]
  Emax: 94%
Kir3.1/Kir3.4
  EC50: 0.448 µM
[2]
  Emax: 50%

## Cc1cc(NC(=O)Cc2csc(-c3ccccc3)n2)n(C2CCCCC2)n1
Kir3.1/Kir3.2
  EC50: 1.33 µM
[1]
  Emax: 44%
Kir3.1/Kir3.4
  EC50: > 3 µM
[2]
  Emax: > 18%

## Cc1cc(NC(=O)Cn2nnc(-c3ccccc3F)n2)n(C2CCCCC2)n1
Kir3.1/Kir3.2
  EC50: 0.187 µM
[1]
  Emax: 88%
Kir3.1/Kir3.4
  EC50: 0.447 µM
[2]
  Emax: 60%

## Cc1cc(NC(=O)Cc2ncc(-c3ccccc3)o2)n(C2CCCCC2)n1
Kir3.1/Kir3.2
  EC50: 0.631 µM
[1]
  Emax: 72%
Kir3.1/Kir3.4
  EC50: 1.13 µM
[2]
  Emax: 27%

## Cc1ccc(-c2nnn(CC(=O)Nc3cc(C)nn3C3CCCCC3)n2)cc1
Kir3.1/Kir3.2
  EC50: 0.111 µM
[1]
  Emax: 86%
Kir3.1/Kir3.4
  EC50: 0.408 µM
[2]
  Emax: 64%

## Cc1cc(NC(=O)Cn2nnc(-c3ccccc3)n2)n(C(C)C)n1
Kir3.1/Kir3.2
  EC50: 0.556 µM
[1]
  Emax: 107%
Kir3.1/Kir3.4
  EC50: > 4 µM
[2]
  Emax: > 96%
